Measured values as given in patent publication US20110319660A1 (Galactic SA, priority 2008, published 2011).

What was measured:
[1] = Thermal stability test: colour after heating at reflux at 200° C. for two hours; conditions: 90% solution of crystals
Description: The analyses conducted on the 90% crystal solutions are a measurement of the colour at ambient temperature (APHA scale in Hazen units) and a thermal stability test consisting of measuring the colour (APHA scale in Hazen units) of the substance after heating at reflux at a temperature of 200° C. for two hours.

[2] = Secondary nucleation temperature Tn of lactic acid solution; format: physicochemical
Description: We measured the secondary nucleation temperature for more reproducibility. For this purpose, a few large crystals (three or four) are introduced into the slightly subcooled solution (26° C.). These crystals are used to initiate nucleation. To obtain nucleation, the solution is cooled according to a cooling gradient of 10° C./hr. The nucleation temperature is measured when the first crystal (excluding crystals in solution) appears.

[3] = Specific surface area by mass of crystals by optical microscopy; format: physicochemical
Description: The specific surface area by mass (SSM) of crystals is the area developed by the crystals per unit of weight. The specific surface area by mass (SSM) is used to compare the dimensional characteristics of crystals of a suspension or a powder with those of another suspension or powder. This specific surface area can be measured by means of optical imaging on the basis of a volume (Vm) and the mean surface area (Sm) of hundreds of crystals (by measuring the length of the face thereof) and the density of the crystals (Dc):
The crystal size measurements were made using an optical microscope (Askania RME5) equipped with a digital camera (Nikon Coolpix 4500) with crystal measurement software supplied by Leica. For both test conditions, the length (L1) and thickness (L2) of 200 crystals were measured.
The specific surface area by mass of the crystals obtained at low supersaturation is 0.03 m^2/g whereas that of the crystals at high supersaturation is 0.06 m^2/g. This is calculated by taking the surface area and the volume of a parallelepiped having a length L1 and width and thickness L2.
The specific surface area by mass of the crystals is also estimated by measuring the length and thickness of 200 crystals of each sample according to the protocol described in example 1.

## CC(O)C(=O)O (centres unmarked) [lactic acid, hydroxy-2-propanoic acid]
[1]; Example 2: supersaturation 14%
  Colour after heating (200° C., 2 hrs), after drying: 500 Hazen
  Colour after heating (200° C., 2 hrs), after passage on Noritt ROX activated carbon (20 g/l): 25 Hazen
  Colour after heating (200° C., 2 hrs), after washing (25% of a 90% lactic acid solution, 4° C.): 49 Hazen
[1]; Example 2: supersaturation 50%
  Colour after heating (200° C., 2 hrs), after drying: 900 Hazen
  Colour after heating (200° C., 2 hrs), after passage on Noritt ROX activated carbon (20 g/l): 45 Hazen
  Colour after heating (200° C., 2 hrs), after washing (25% of a 90% lactic acid solution, 4° C.): 88 Hazen
[1]; Example 2: supersaturation 86%
  Colour after heating (200° C., 2 hrs), after drying: 1328 Hazen
  Colour after heating (200° C., 2 hrs), after washing (25% of a 90% lactic acid solution, 4° C.): 480 Hazen
[2]; Example 1: lactic acid concentration 92%, colour 2000 Hazen, relative monomer content 96%
  secondary nucleation temperature: 18 °C
[2]; Example 2: lactic acid concentration 90%, colour 1800 Hazen, relative monomer content 94%
  Tn: 18 °C
[2]; Example 4: lactic acid concentration 95.4%, colour 1900 Hazen, relative monomer content 91%
  Tn: 33 °C
[2]; total acidity 89%, free acidity 78.7%, relative monomer content 77%
  Tn: 8 °C
[2]; total acidity 89%, free acidity 84%, relative monomer content 89%
  Tn: 15 °C
[2]; total acidity 89%, free acidity 87.6%, relative monomer content 97.5%
  Tn: 22 °C
[2]; total acidity 89%, free acidity 88.2%, relative monomer content 99%
  Tn: 23 °C
[3]; Example 1: crystals obtained at high supersaturation Ds^c=87.5%
  Specific surface area by mass: 0.06 m^2/g
[3]; Example 1: crystals obtained at low supersaturation Ds^c=12.5%
  Specific surface area by mass: 0.03 m^2/g
[3]; Example 2: crystals, supersaturation 14%
  Specific surface area by mass: 0.03 m^2/g
[3]; Example 2: crystals, supersaturation 50%
  Specific surface area by mass: 0.045 m^2/g
[3]; Example 2: crystals, supersaturation 86%
  Specific surface area by mass: 0.07 m^2/g
